Measurements: ChEMBL document CHEMBL5506024, “Multitarget μ-Opioid Receptor Agonists─Neuropeptide FF Receptor Antagonists Induce Potent Antinociception with Reduced Adverse Side Effects” (J Med Chem, 2024)
Calls of active or inactive are those of the source. Numbered stars: 1 amine (or outer) side, 2 acyl side, 3 side chain; on linkers, the order of the positions; unused ones are H or OH. Square brackets hold non-standard residues; d marks the D form. Peptide text beside a SMILES is read from it. * marks the point of attachment. Nva(5-(4-Bn-piperidin-1-yl)) = N[C@@H](CCCN1CCC(Cc2ccccc2)CC1)C(=O)O; X2 = O=C1[C@@H](N[*:1])Cc2ccccc2CN1CCCC(=O)[*:2]; X1 = O=C1[C@@H](N[*:1])Cc2ccccc2CN1CCC(=O)[*:2]; Dmt = Cc1cc(O)cc(C)c1C[C@H](N)C(=O)O; Nicotinoyl = O=C(c1cccnc1)*; dOrn = NCCC[C@@H](N)C(=O)O; dNMeA = CN[C@H](C)C(=O)O

What was measured:
Mu-type opioid receptor [1] = target: T1, Mu-type opioid receptor (Homo sapiens, UniProt P35372); assay: Agonist activity at human MOP expressed in HEK293 cells coexpressing GloSensor-20F assessed as inhibition of forskolin-induced cAMP accumulation relative to control; assay type: functional, cell-based; conditions: filed as agonist
T1 sequence (P35372 whole entry): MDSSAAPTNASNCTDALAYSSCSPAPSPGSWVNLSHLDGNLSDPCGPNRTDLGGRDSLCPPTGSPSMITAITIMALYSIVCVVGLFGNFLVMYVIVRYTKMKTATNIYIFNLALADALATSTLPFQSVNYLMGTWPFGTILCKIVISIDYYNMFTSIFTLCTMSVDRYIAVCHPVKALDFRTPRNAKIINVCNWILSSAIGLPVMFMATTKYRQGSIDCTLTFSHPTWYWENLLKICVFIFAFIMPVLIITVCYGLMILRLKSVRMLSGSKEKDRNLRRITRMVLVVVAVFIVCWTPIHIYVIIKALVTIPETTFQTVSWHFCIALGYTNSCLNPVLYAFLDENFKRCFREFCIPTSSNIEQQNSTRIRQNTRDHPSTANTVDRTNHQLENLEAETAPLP

[2] = target: T2, Neuropeptide FF receptor 1 (Homo sapiens, UniProt Q9GZQ6); assay: Displacement of [125I]-1DMeNPFF from human NPFFR1 expressed in CHO cell membrane at 0.5 uM incubated for 1 hr by Topcount counting method relative to control; assay type: cell membranes
T2 sequence (Q9GZQ6 whole entry): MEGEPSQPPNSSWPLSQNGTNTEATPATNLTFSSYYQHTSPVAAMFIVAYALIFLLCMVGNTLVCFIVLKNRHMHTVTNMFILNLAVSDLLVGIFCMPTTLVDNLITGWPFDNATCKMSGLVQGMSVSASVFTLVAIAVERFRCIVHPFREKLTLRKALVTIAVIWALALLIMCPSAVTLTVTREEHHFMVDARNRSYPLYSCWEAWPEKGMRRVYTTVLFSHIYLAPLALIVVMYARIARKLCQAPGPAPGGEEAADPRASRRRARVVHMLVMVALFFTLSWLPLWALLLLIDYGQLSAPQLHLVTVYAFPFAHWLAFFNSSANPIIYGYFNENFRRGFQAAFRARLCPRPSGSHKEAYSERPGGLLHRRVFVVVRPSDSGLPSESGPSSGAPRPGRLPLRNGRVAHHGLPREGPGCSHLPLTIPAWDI

[3] = target: T2, Neuropeptide FF receptor 1; assay: Antagonist activity at human NPFFR1 expressed in CHO cell membrane assessed as inhibition of NPVF induced cAMP response at 5 uM incubated for 1 hr by Topcount counting method relative to control; assay type: functional, cell membranes; design: scale not given: the % may be the effect or the level left
Mu-type opioid receptor [4] = target: T1, Mu-type opioid receptor; assay: Agonist activity at human Rluc8-tagged MOP expressed in HEK293 cells coexpressing eYFP-tagged beta-arrestin-2 assessed as beta-arrestin-2 recruitment incubated for 5 mins by luminometer analysis; assay type: functional, cell-based
Mu-type opioid receptor [5] = target: T1, Mu-type opioid receptor; assay: Agonist activity at human MOP expressed in HEK293 cells coexpressing GloSensor-20F assessed as inhibition of forskolin-induced cAMP accumulation; assay type: functional, cell-based
Mu-type opioid receptor [6] = target: T1, Mu-type opioid receptor; assay: Agonist activity at human Rluc8-tagged MOP expressed in HEK293 cells coexpressing eYFP-tagged beta-arrestin-2 assessed as beta-arrestin-2 recruitment incubated for 5 mins by luminometer analysis relative to control; assay type: functional, cell-based
[7] = target: T3, Neuropeptide FF receptor 2 (Homo sapiens, UniProt Q9Y5X5); assay: Antagonist activity at human NPFFR2 expressed in CHO cell membrane assessed as inhibition of NPVF induced cAMP response at 5 uM incubated for 1 hr by Topcount counting method relative to control; assay type: functional, cell membranes; design: scale not given: the % may be the effect or the level left
T3 sequence (Q9Y5X5 whole entry): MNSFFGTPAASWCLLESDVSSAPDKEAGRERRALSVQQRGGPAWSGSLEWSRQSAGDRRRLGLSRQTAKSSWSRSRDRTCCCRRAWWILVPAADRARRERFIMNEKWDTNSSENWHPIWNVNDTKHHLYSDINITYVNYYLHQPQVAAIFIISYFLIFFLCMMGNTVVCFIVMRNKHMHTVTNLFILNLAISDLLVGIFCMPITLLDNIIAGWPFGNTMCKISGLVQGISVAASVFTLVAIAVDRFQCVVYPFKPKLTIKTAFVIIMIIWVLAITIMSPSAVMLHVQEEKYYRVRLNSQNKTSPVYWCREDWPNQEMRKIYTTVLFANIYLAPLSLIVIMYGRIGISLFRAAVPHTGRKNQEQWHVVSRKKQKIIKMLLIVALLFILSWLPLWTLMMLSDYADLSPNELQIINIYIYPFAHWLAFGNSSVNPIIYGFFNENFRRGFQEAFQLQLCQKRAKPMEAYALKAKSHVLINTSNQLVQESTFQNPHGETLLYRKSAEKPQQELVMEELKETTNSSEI

[8] = target: T3, Neuropeptide FF receptor 2; assay: Displacement of [125I]-1DMeNPFF from human NPFFR2 expressed in CHO cell membrane at 0.05 uM incubated for 1 hr by Topcount counting method relative to control; assay type: cell membranes; conditions: filed as antagonist
[9] = Toxicity in sc dosed C57BL/6N mouse assessed as induction of respiratory depression by measuring decrease in pulmonary rate by plethysmography; assay type: organism-based; conditions: in vivo
[10] = Induction of naltrexone-precipitated withdrawal syndrome in sc dosed C57BL/6N mouse assessed as vegetative signs administered for 8 days followed by naltrexone addition on day 9 after 2 hrs post last dose and measured after 30 mins; assay type: toxicity, organism-based; conditions: in vivo, 216.5 h, time 12990 min
[11] = Induction of naltrexone-precipitated withdrawal syndrome in sc dosed C57BL/6N mouse assessed as somatic signs administered for 8 days followed by naltrexone addition on day 9 after 2 hrs post last dose and measured after 30 mins; assay type: toxicity, organism-based; conditions: in vivo, 216.5 h, time 12990 min
Mus musculus [12] = assay: Antinociceptive activity in mouse at 10 mg/kg, sc administered daily and measured on day 8; assay type: functional, organism-based
Mus musculus [13] = assay: Antinociceptive activity in mouse assessed as basal nociceptive threshold at 10 mg/kg, sc administered daily and measured on day 2 to 7; assay type: functional, organism-based
[14] = Induction of naltrexone-precipitated withdrawal syndrome in sc dosed C57BL/6N mouse assessed as paw tremor administered for 8 days followed by naltrexone addition on day 9 after 2 hrs post last dose and measured after 30 mins; assay type: toxicity, organism-based; conditions: in vivo, 216.5 h, time 12990 min
Mus musculus [15] = assay: Antinociceptive activity in mouse at 4.2 umol/kg, sc administered chronically and measured on day 8; assay type: functional, organism-based; conditions: dose 4.2 µmol/kg
[16] = Cmax in mouse at 10 mg/kg, sc measured upto 24 hrs by LC-MS/MS analysis; assay type: ADME, organism-based; conditions: in vivo
Mus musculus [17] = assay: Antinociceptive activity in mouse at 4.2 umol/kg, sc administered chronically and measured on day 1; assay type: functional, organism-based; conditions: dose 4.2 µmol/kg
Mus musculus [18] = assay: Antinociceptive activity in mouse at 4.2 umol/kg, sc administered daily and measured on day 1 and 8; assay type: functional, organism-based; conditions: dose 4.2 µmol/kg
[19] = target: Nociceptin receptor (Homo sapiens) (UniProt P41146); assay: Antagonist activity at human NOR expressed in HEK293 cells assessed as forskolin-induced cAMP accumulation in presence of IBMX; assay type: functional, cell-based; conditions: filed as antagonist
Sequence of Nociceptin receptor (Homo sapiens) (P41146 whole entry): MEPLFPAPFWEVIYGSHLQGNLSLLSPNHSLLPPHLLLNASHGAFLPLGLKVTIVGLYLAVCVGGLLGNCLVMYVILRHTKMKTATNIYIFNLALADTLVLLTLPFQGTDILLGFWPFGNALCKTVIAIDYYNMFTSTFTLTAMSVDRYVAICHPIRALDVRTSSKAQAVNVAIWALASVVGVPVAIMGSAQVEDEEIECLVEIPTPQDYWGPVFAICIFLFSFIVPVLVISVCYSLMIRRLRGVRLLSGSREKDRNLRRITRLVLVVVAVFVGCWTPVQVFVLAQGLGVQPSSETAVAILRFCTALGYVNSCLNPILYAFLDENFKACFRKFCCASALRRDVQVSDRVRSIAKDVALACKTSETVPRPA

[20] = Induction of naltrexone-precipitated withdrawal syndrome in sc dosed C57BL/6N mouse assessed as wet dog shake counts administered for 8 days followed by naltrexone addition on day 9 after 2 hrs post last dose and measured after 30 mins; assay type: toxicity, organism-based; conditions: in vivo, 216.5 h, time 12990 min
[21] = Half life in mouse at 10 mg/kg, sc measured upto 24 hrs by LC-MS/MS analysis; assay type: ADME, organism-based; conditions: in vivo
[22] = target: Kappa-type opioid receptor (Homo sapiens, UniProt P41145); assay: Antagonist activity at human KOR expressed in HEK293 cells assessed as forskolin-induced cAMP accumulation in presence of IBMX; assay type: functional, cell-based; conditions: filed as antagonist
Sequence of Kappa-type opioid receptor (P41145 whole entry): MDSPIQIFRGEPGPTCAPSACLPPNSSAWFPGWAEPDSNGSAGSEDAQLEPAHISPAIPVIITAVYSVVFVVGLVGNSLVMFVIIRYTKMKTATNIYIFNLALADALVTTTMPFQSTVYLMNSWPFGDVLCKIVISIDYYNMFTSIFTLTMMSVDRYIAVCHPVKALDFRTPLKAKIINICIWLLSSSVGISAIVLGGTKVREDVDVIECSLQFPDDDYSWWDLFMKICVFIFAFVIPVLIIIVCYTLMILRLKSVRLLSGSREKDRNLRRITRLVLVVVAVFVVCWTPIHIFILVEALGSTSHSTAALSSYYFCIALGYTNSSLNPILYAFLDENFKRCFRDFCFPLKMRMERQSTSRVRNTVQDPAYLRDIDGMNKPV

[23] = Tmax in mouse at 10 mg/kg, sc measured upto 24 hrs by LC-MS/MS analysis; assay type: ADME, organism-based; conditions: in vivo
[24] = Drug concentration in mouse plasma at 10 mg/kg, sc measured after 2 hrs by LC-MS/MS analysis; assay type: ADME, organism-based

Compound	Emax (Mu-type opioid receptor [1]) [%]	Activity ([2]; filed as antagonist) [%]	Activity [3] [%]	EC50 (Mu-type opioid receptor [4]; read-out: EC50) [nM]	EC50 (Mu-type opioid receptor [5]) [nM]	Emax (Mu-type opioid receptor [6]) [%]	Activity [8] [%]	Activity ([3]; filed as antagonist) [%]	Activity ([7]; filed as antagonist) [%]	also measured
Cc1cc(O)cc(C)c1C[C@H](N)C(=O)N[C@H](CCCN)C(=O)N[C@H]1Cc2ccccc2CN(CCC(=O)N[C@@H](CCCN2CCC(Cc3ccccc3)CC2)C(=O)N[C@@H](Cc2ccccc2)C(N)=O)C1=O (H-[Dmt][dOrn][X1][Nva(5-(4-Bn-piperidin-1-yl))]F-NH2)	78	45	22	2350	34	20	55	–	–	Activity [7]: 37%
COc1ccsc1CNCC[C@@]1(c2ccccn2)CCOC2(CCCC2)C1 [OLICERIDINE]	–	–	–	–	–	–	–	–	–	Activity [9]: Dose-Dependent Effect; Activity [10]: Toxic; Activity [11]: Toxic; Activity (Mus musculus [12]): inactive; Activity (Mus musculus [13]): inactive
Cc1cc(O)cc(C)c1C[C@H](N)C(=O)N[C@H](CCCNC(=N)N)C(=O)N[C@H]1Cc2c(ccc3ccccc23)CN(CC(=O)N[C@@H](CCCN2CCC(Cc3ccccc3)CC2)C(=O)N[C@@H](Cc2c[nH]c3ccccc23)C(N)=O)C1=O	65	68	–	–	10.5	–	84	62	83	EC50 (Mu-type opioid receptor [4]; hek293): Not Active
Cc1cc(O)cc(C)c1C[C@H](N)C(=O)N[C@H](CCCNC(=N)N)C(=O)N[C@H]1Cc2c(ccc3ccccc23)CN(CC(=O)N[C@@H](CCCN2CCC(Cc3ccccc3)CC2)C(=O)N[C@@H](Cc2ccccc2)C(N)=O)C1=O	90	–	22	–	–	22	96	–	91	Activity [2]: 35%
Cc1cc(O)cc(C)c1C[C@H](N)C(=O)N(C)[C@H](C)C(=O)N[C@H]1Cc2ccccc2CN(CCCC(=O)N[C@@H](CCCN2CCC(Cc3ccccc3)CC2)C(=O)N[C@@H](Cc2ccccc2)C(N)=O)C1=O (H-[Dmt][dNMeA][X2][Nva(5-(4-Bn-piperidin-1-yl))]F-NH2)	66	57	12	–	10.6	–	65	–	49	EC50 (Mu-type opioid receptor [4]; hek293): Not Active
Cc1cc(O)cc(C)c1C[C@H](N)C(=O)N[C@H](CCCCNC(=O)c1cccnc1)C(=O)N[C@H]1Cc2ccccc2CN(CCC(=O)N[C@@H](CCCN2CCC(Cc3ccccc3)CC2)C(=O)N[C@@H](Cc2ccccc2)C(N)=O)C1=O (H-[Dmt][dK](Nicotinoyl)[X1][Nva(5-(4-Bn-piperidin-1-yl))]F-NH2)	92	74	33	12	–	16	70	–	59	–
Cc1cc(O)cc(C)c1C[C@H](N)C(=O)N[C@H](CCCNC(=N)N)C(=O)N[C@H]1Cc2c(ccc3ccccc23)CN(CC(=O)N[C@@H](CCCN2CCC(Cc3ccccc3)CC2)C(=O)N[C@H](C(N)=O)C(C)C)C1=O	102	87	–	–	–	22	77	51	77	–
Cc1cc(O)cc(C)c1C[C@H](N)C(=O)N[C@H](CCCNC(=N)N)C(=O)N[C@@H](Cc1ccccc1)C(=O)N(C)[C@@H](C)C(=O)N[C@@H](CCCN1CCC(Cc2ccccc2)CC1)C(=O)N[C@@H](Cc1ccccc1)C(N)=O	99	–	–	92	17	–	–	–	–	Emax (Mu-type opioid receptor [6]; filed as agonist): 87%
Cc1cc(O)cc(C)c1C[C@H](N)C(=O)N(C)[C@H](C)C(=O)N[C@H]1Cc2ccccc2CN(CCC(=O)N[C@@H](CCCN2CCC(Cc3ccccc3)CC2)C(=O)N[C@@H](Cc2ccccc2)C(N)=O)C1=O (H-[Dmt][dNMeA][X1][Nva(5-(4-Bn-piperidin-1-yl))]F-NH2)	64	43	–	–	–	12	48	75	45	–
Cc1cc(O)cc(C)c1C[C@H](N)C(=O)N[C@H](CCCNC(=N)N)C(=O)N[C@H]1Cc2ccccc2CN(CCC(=O)N[C@@H](CCCN2CCC(Cc3ccccc3)CC2)C(=O)N[C@@H](Cc2ccccc2)C(N)=O)C1=O	91	80	–	125	9.3	–	83	62	54	Activity [14]: Non-Toxic; Activity (Mus musculus [15]): inactive; Cmax [16]: 984 nM; Activity (Mus musculus [17]): Active; Activity (Mus musculus [18]): Active; Activity [19]: Active; Activity [20]: Non-Toxic; half-life [21]: 3.08 h; Activity [22]: Active; Emax (Mu-type opioid receptor [6]; filed as agonist): 42%; Tmax [23]: 2.67 h; concentration at 2 h [24]: 937 nM
